Columns and labels:
[1] = Phase 3 extension study: rapid IM injection of Compound 1, pain and injection site reactions; type: in vivo, human; details: fast injection
Method: Injection site reactions and pain upon IM injection of Compound 1 are a potential safety concern. A Phase 3, multicenter, extension study was conducted in 81 sites to assess the effect of rapid IM injections of Compound 1 on human patients diagnosed with stable schizophrenia. Briefly, 332 subjects enrolled in the study were assigned PFS. Compound 1 is formulated as a pre-filled syringe (PFS) of an extended release aqueous suspension of a therapeutically effective amount of Compound 1. An injection volume of 3.4 mL or 1.6 mL of the aqueous suspension was administered according to protocol I at a rate of less than 10 seconds by inserting the 20 gauge needle in the gluteal muscle. ISRs upon IM injection of Compound 1 were assessed at each visit. Over 5000 injections of Compound 1 have been administered intramuscularly with an ISR rate of less than 1%.
• 1. TAP the pre-filled syringe at least 10 times to dislodge any material that may have settled. • 2. […] Replace with new needle (Steps 3 & 4) and administer into an adjacent site in the same gluteal muscle (Steps 5 & 6).] • If you are unable to complete the injection, replace with new needle (Steps 3 & 4) and readminister into an adjacent site in the same gluteal muscle (Steps 5 & 6). • 7. […]

[2] = cited from earlier work

| Structure (SMILES) | injection site reactions and/or elevated pain levels reported, % of patients [1] | Tissue irritation ([2]; following intramuscular (IM) injection and subcutaneous (SC) injection) | Pharmacokinetic profile ([2]; injections) |
| --- | --- | --- | --- |
| CCCCCCCCCCCC(=O)OCN1C(=O)CCc2ccc(OCCCCN3CCN(c4cccc(Cl)c4Cl)CC3)cc21 [Compound 1, (7-(4-(4-(2,3-dichlorophenyl)piperazin-1-yl)butoxy)-2-oxo-3,4-dihydroquinolin-1(2H)-yl)methyl dodecanoate] | < 1% |  |  |
| O=C1CCc2ccc(OCCCCN3CCN(c4cccc(Cl)c4Cl)CC3)cc2N1 [aripiprazole free base, 7-{4-[4-(2,3-dichlorophenyl)-1-piperazinyl]butoxy}-3,4-dihydro-2(1H)-quinolinone] |  | moderate to severe | prolonged |
